Laboratory results reported in patent US10688087B2, “Pharmaceutical compositions and therapeutic methods employing a combination of a manganese complex compound and a non-manganese complex form of the compound” (PLEDPHARMA AB, priority 2009, dated 2020).

How the values were obtained:
[1] = rats, i.v.; for effect on 0-24 h Zn excretion: 10 μmol/kg MnDPDP alone, with 20 μmol/kg b.w. DPDP, or 10 μmol/kg b.w. DPDP, n=2
Experimental: 10 male Wistar rats (approximately 250 g) were injected intravenously, via one of the tail veins, with either 0, 0.125, 0.250, 0.500 or 0.750 ml of a 10 mM DPDP formulation, corresponding to 0, 5, 10, 20 and 30 μmol/kg b.w. […] After injection, the rats were immediately placed in metabolic cages for urine collection over a period of 0-24 hours. The urine samples were then stored at −80° C. until Zn and Mn analyses. Before analyses, the samples were thawed and extensively shaken to obtain homogenous samples. A five ml aliquot was taken from each sample and 5 ml concentrated nitric acid was added. The samples were then resolved in a microwave oven and thereafter diluted with distilled water to a final volume of 50 ml. The zinc (Zn) and manganese (Mn) content of each sample were analyzed by ICP-MS. Results are presented as total 0-24 h urine Zn and Mn content (expressed as μmol/kg b.w.±S.E.M.).

white blood cells [2] = conditions: mice, 10 mg/kg b.w. MnDPDP (Alexandre et al., 2006); cited from earlier work
[3] = Literature pharmacokinetics of i.v. MnDPDP (Toft et al., 1997): manganese release, urine Mn and Zn, metabolism; type: in vivo; conditions: humans, 10 μmol/kg b.w., rough recalculation of data of Toft et al.
[4] = rat, in vivo, ip
Experimental: Twenty-four hours later, the rats were killed and the brains were dissected out and stored at −80° C. until Mn analysis. […] Before analysis, each brain was resolved in 5 ml concentrated nitric acid plus 3 ml distilled water in a microwave oven, and thereafter diluted with distilled water to a final volume of 50 ml. The Mn and Zn content of each sample was analyzed by ICP-MS. Results are expressed as μg/g brain wet weight±S.E.M and percentage increase in Mn brain content. […] A p-value lower than 0.05 was considered as a statistically significant difference.

[5] = i.v., 10 μmol/kg b.w.; humans (Toft et al.) and rats (Hustvedt et al.); cited from earlier work
[6] = rats, i.v.
Experimental: After injection, the rats were immediately placed in metabolic cages for urine collection over a period of 0-24 hours. To obtain basal content of manganese (Mn) in urine, two additional (control) rats were placed in metabolic cages for urine collection over the same period of time. The urine samples were then stored at −80° C. until Mn analysis. Before analysis, the samples were thawed and extensively shaken to obtain homogenous samples. A five ml aliquot was taken from each sample and 5 ml concentrated nitric acid was added. The samples were then resolved in a microwave oven and thereafter diluted with distilled water to a final volume of 50 ml. The Mn content of each sample was analyzed by ICP-MS (Inductively Coupled Plasma Mass Spectrometry). […] This sample was treated in an identical manner to that of the urine samples and analyzed for its Mn content. Results are presented as total 0-24 h urine Mn content (expressed as μmol/kg±S.E.M.) and as percentage (±S.E.M.) of the injected dose. The statistical difference between animals receiving MnDPDP alone and animals receiving MnDPDP and DPDP, with respect to excretion of manganese into the urine, was tested by an unpaired Student's t-test. A p-value lower than 0.05 was considered as a statistically significant difference.

white blood cells [7] = test: Paclitaxel-induced myelosuppression (leucopenia) in mice, blood cell counts (Example 5); type: in vivo, BALB/c female mice; conditions: i.p., paclitaxel 20 mg/kg b.w. on days 0, 2, 4, blood day 10
Experimental: To test the therapeutic efficacy, initial experiments were conducted in BALB/c female mice (15-20 g), as described by Alexandre et al., JNCI 2006; 98:236-244).
Five mice were treated in each group. Paclitaxel was administered on days 0, 2, and 4. […] Ten days after the first injection the mice were anesthetized and blood samples were withdrawn by heart puncture into EDTA-tubes and blood cell counting (including white blood cell count (WBC); absolute neutrophil (ANC), monocyte and lymphocyte count) was conducted on a CELL-DYN Sapphire analyzer, after the blood samples had been diluted 1:1. Some samples had to be discarded because of clotting but all groups included at least blood from 3 animals.

Row | effect of increasing doses of DPDP on 0-24 h Mn excretion ([1]; 0-30 μmol/kg b.w. DPDP) | effect on 0-24 h Zn excretion [1] | 0-24 h Zn excretion (saturation level) ([1]; at a dose of 10 μmol/kg b.w. DPDP) | renal zinc excretion [3] | Zn brain content [4] | percentage increase in brain Mn [4] | amount of zinc in the urine up to 24 hours ([1]; 10 μmol/kg b.w. MnDPDP) | amount of manganese released from the complex ([6]; as exemplified by Example 1) | Mn excretion in urine during 0-24 h as percentage of the injected dose ([6]; 0.25 ml 10 mM MnDPDP ± 0.5 ml 10 mM DPDP, mean±S.E.M., n=7) | reduction of the various white blood cells (white blood cells [7]) | SMILES | protection against paclitaxel-induced leucopenia (white blood cells [2]) | manganese originating from the chelator that comes out in the urine [5]
1 | just minor effects | doubles the zinc excretion | around 4 μmol/kg | – | – | – | – | – | – | – | Cc1ncc(COP(=O)(O)O)c(CN(CCN(CC(=O)O)Cc2c(COP(=O)(O)O)cnc(C)c2O)CC(=O)O)c1O [DPDP, N,N′-bis-(pyridoxal-5-phosphate)-ethylenediamine-N,N′-diacetic acid] | – | –
2 | – | relatively small effect | – | approximately 3 μmol/kg b.w. | identical | 23.5% | about 2 μmol/kg b.w. | 85% | 15.7±1.1% | – | Cc1ncc(COP(=O)(O)O)c(CN(CCN(CC(=O)O)Cc2c(COP(=O)(O)O)cnc(C)c2O)CC(=O)O)c1O.[Mn] [MnDPDP, Manganese N,N′-bis-(pyridoxal-5-phosphate)-ethylenediamine-N,N′-diacetic acid] | effectively protect | ≤ 20%
3 | – | – | – | – | – | – | – | – | – | ~50% | CC(=O)O[C@H]1C(=O)[C@@]2(C)[C@H]([C@H](OC(=O)c3ccccc3)[C@]3(O)C[C@H](OC(=O)[C@H](O)[C@@H](NC(=O)c4ccccc4)c4ccccc4)C(C)=C1C3(C)C)[C@]1(OC(C)=O)CO[C@@H]1C[C@@H]2O [Paclitaxel, paclitaxel] | – | –
